# According to patent US20100041089A1, “IMPROVED METHOD FOR DETECTING CHEMICAL […]” (priority 2006, published 2010):
# System: yeast genes (expressed mRNA)
# Assay: DNA chip measurement of expressed mRNA of yeast genes after culture with a toxic chemical substance
# Format: cell-based, Saccharomyces cerevisiae S288C
# Conditions: for level of expressed mRNA in the presence of chemical substance / level in the absence of chemical substance: cultured two hours with the chemical substance; for The level of expressed mRNA in the presence of chemical substance/The level of expressed mRNA in the absence of chemical substance: cultured two hours with substance
# Description: Yeast (Saccharomyces cerevisiae S288C (a SUC2mal mel gap2 CUP1)) were cultured at 25° C. on YPD medium (yeast extract 1%, polypeptone 2%, glucose 2%). One of toxic chemical substances was added to the cell at logarithmic growth phase, and the cell was further cultured for two hours. Cell was cultured without any chemical substance in the same condition, and was used as a control. Concentrations of the chemical substances were defined to inhibit the growth of the yeast but not lead to death.
# After the completion of cultivation, the culture was centrifuged to collect the cells. To the cells, sodium acetate buffer (50 mM sodium acetate, 10 mM EDTA, 1% SDS) was added, and the mixture was shaken at 65° C. for five minutes, followed by returning to room temperature, and obtaining the supernatant, which procedure was repeated two times. To the supernatant, ½ amount of a solution of phenol/chloroform (1:1) was added, and the mixture was centrifuged to give a supernatant, an equal amount of chloroform was added, and the mixture was centrifuged to give a supernatant. To the supernatant, an equal amount of isopropanol containing 0.3 M sodium acetate was added, and the mixture was allowed to stand at room temperature for 30 minutes, after which the mixture was centrifuged to give sediment of the whole RNAs. Seventy % ethanol was added to the sediment, and the mixture was again centrifuged to give sediment, which was then dried and dissolved in water. mRNA was isolated from the whole RNAs as followings. In view of the fact that a poly A chain is attached to the 3′ terminus of mRNA, a polynucleotide having a poly T structure which was immobilized on the surface of latex beads was used to trap the mRNA, and then the mRNA was washed and eluted with spine column (Oligotex-dT30<Super>mRNA Purification Kit, Takara). Reverse transcription of the mRNA was conducted with a reverse transcriptase (Super Script II Reverse Transcriptase; catalogue No. 18064-014, GibcoBRL) using fluorescence-labeled nucleotides to give cDNAs that were introduced with Cy3-dUTP or Cy5-dUTP during the reverse transcription.
# The labeled cDNAs were dissolved in TE buffer (10 mM Tris-HCl/1 mM EDTA, pH 8.0), and the solution was dropped on the DNA chip containing the whole genes of yeast (DNA Chip Research Inc. Japan) so that the cDNAs were hybridized on the DNA chip at 65° C. for over 12 hours. The fluoresces intensity of the DNA chip was read with a scanner, and the ratio relative to the fluorescence intensity resulting from the absence of chemical substance was estimated as the following, which is shown in Tables 1 to 9.
# In the Tables, “Intensity” indicated in the rightmost column is a value of the level of expressed mRNA of each gene in control cells as divided by the average level of the expressions of the whole genes. A gene of which mRNA level is lower in control, and is higher in cases of addition of chemical substance, is especially useful in the detection of toxic substances.
# Here, when a ratio of an amount of mRNA expressed in the presence of the chemical substance to an amount of mRNA expressed in the absence of the chemical substance is two or more, then it is considered significant.
smiles,measurement,setting,value
"[Cl][Hg][Cl] [(3), HgCl2]","The level of expressed mRNA in the presence of chemical substance/The level of expressed mRNA in the absence of chemical substance, yeast gene YBR036C","gene YBR036C, Metabolism protein genes, DNA chip fluorescence ratio",1.8
same,"The level of expressed mRNA in the presence of chemical substance/The level of expressed mRNA in the absence of chemical substance, yeast gene YBR298C","gene YBR298C, Metabolism protein genes, DNA chip fluorescence ratio",1.6
same,"The level of expressed mRNA in the presence of chemical substance/The level of expressed mRNA in the absence of chemical substance, yeast gene YDL067C","gene YDL067C (mitochondria-located protein gene), yeast cultured two hours with chemical substance, DNA chip fluorescence ratio to control",1.6
same,"The level of expressed mRNA in the presence of chemical substance/The level of expressed mRNA in the absence of chemical substance, yeast gene YDL078C","gene YDL078C, Metabolism protein genes, DNA chip fluorescence ratio",1.2
same,"The level of expressed mRNA in the presence of chemical substance/The level of expressed mRNA in the absence of chemical substance, yeast gene YDL215C","gene YDL215C, Metabolism protein genes, DNA chip fluorescence ratio",1.0
same,"The level of expressed mRNA in the presence of chemical substance/The level of expressed mRNA in the absence of chemical substance, yeast gene YDR079W","gene YDR079W (mitochondria-located protein gene), yeast cultured two hours with chemical substance, DNA chip fluorescence ratio to control",0.8
same,"The level of expressed mRNA in the presence of chemical substance/The level of expressed mRNA in the absence of chemical substance, yeast gene YDR297W","gene YDR297W, Metabolism protein genes, DNA chip fluorescence ratio",0.8
same,"The level of expressed mRNA in the presence of chemical substance/The level of expressed mRNA in the absence of chemical substance, yeast gene YDR387C","gene YDR387C, Metabolism protein genes, DNA chip fluorescence ratio",1.2
same,"The level of expressed mRNA in the presence of chemical substance/The level of expressed mRNA in the absence of chemical substance, yeast gene YGL035C","gene YGL035C, Metabolism protein genes, DNA chip fluorescence ratio",4.3
same,"The level of expressed mRNA in the presence of chemical substance/The level of expressed mRNA in the absence of chemical substance, yeast gene YGR062C","gene YGR062C (mitochondria-located protein gene), yeast cultured two hours with chemical substance, DNA chip fluorescence ratio to control",0.7
same,"The level of expressed mRNA in the presence of chemical substance/The level of expressed mRNA in the absence of chemical substance, yeast gene YGR287C","gene YGR287C, Metabolism protein genes, DNA chip fluorescence ratio",1.3
same,"The level of expressed mRNA in the presence of chemical substance/The level of expressed mRNA in the absence of chemical substance, yeast gene YJL070C","gene YJL070C, Metabolism protein genes, DNA chip fluorescence ratio",1.1
same,"The level of expressed mRNA in the presence of chemical substance/The level of expressed mRNA in the absence of chemical substance, yeast gene YJL096W","gene YJL096W (mitochondria-located protein gene), yeast cultured two hours with chemical substance, DNA chip fluorescence ratio to control",0.8
same,"The level of expressed mRNA in the presence of chemical substance/The level of expressed mRNA in the absence of chemical substance, yeast gene YJL180C","gene YJL180C (mitochondria-located protein gene), yeast cultured two hours with chemical substance, DNA chip fluorescence ratio to control",1.1
same,"The level of expressed mRNA in the presence of chemical substance/The level of expressed mRNA in the absence of chemical substance, yeast gene YKR009C","gene YKR009C, Metabolism protein genes, DNA chip fluorescence ratio",1.5
same,"The level of expressed mRNA in the presence of chemical substance/The level of expressed mRNA in the absence of chemical substance, yeast gene YLR295C","gene YLR295C (mitochondria-located protein gene), yeast cultured two hours with chemical substance, DNA chip fluorescence ratio to control",1.1
same,"The level of expressed mRNA in the presence of chemical substance/The level of expressed mRNA in the absence of chemical substance, yeast gene YLR351C","gene YLR351C, Metabolism protein genes, DNA chip fluorescence ratio",1.3
same,"The level of expressed mRNA in the presence of chemical substance/The level of expressed mRNA in the absence of chemical substance, yeast gene YLR375W","gene YLR375W, Metabolism protein genes, DNA chip fluorescence ratio",0.9
same,"The level of expressed mRNA in the presence of chemical substance/The level of expressed mRNA in the absence of chemical substance, yeast gene YMR023C","gene YMR023C (mitochondria-located protein gene), yeast cultured two hours with chemical substance, DNA chip fluorescence ratio to control",0.5
same,"The level of expressed mRNA in the presence of chemical substance/The level of expressed mRNA in the absence of chemical substance, yeast gene YMR267W","gene YMR267W (mitochondria-located protein gene), yeast cultured two hours with chemical substance, DNA chip fluorescence ratio to control",0.7
same,"The level of expressed mRNA in the presence of chemical substance/The level of expressed mRNA in the absence of chemical substance, yeast gene YMR267W","gene YMR267W, Metabolism protein genes, DNA chip fluorescence ratio",0.7
same,"The level of expressed mRNA in the presence of chemical substance/The level of expressed mRNA in the absence of chemical substance, yeast gene YMR278W","gene YMR278W, Metabolism protein genes, DNA chip fluorescence ratio",1.4
same,"The level of expressed mRNA in the presence of chemical substance/The level of expressed mRNA in the absence of chemical substance, yeast gene YMR293C","gene YMR293C, Metabolism protein genes, DNA chip fluorescence ratio",1.6
same,"The level of expressed mRNA in the presence of chemical substance/The level of expressed mRNA in the absence of chemical substance, yeast gene YNL073W","gene YNL073W (mitochondria-located protein gene), yeast cultured two hours with chemical substance, DNA chip fluorescence ratio to control",0.9
same,"The level of expressed mRNA in the presence of chemical substance/The level of expressed mRNA in the absence of chemical substance, yeast gene YNR072W","gene YNR072W, Metabolism protein genes, DNA chip fluorescence ratio",0.5
same,"The level of expressed mRNA in the presence of chemical substance/The level of expressed mRNA in the absence of chemical substance, yeast gene YOL096C","gene YOL096C, Metabolism protein genes, DNA chip fluorescence ratio",1.2
same,"The level of expressed mRNA in the presence of chemical substance/The level of expressed mRNA in the absence of chemical substance, yeast gene YOR180C","gene YOR180C, Metabolism protein genes, DNA chip fluorescence ratio",1.0
same,"The level of expressed mRNA in the presence of chemical substance/The level of expressed mRNA in the absence of chemical substance, yeast gene YOR316C","gene YOR316C (mitochondria-located protein gene), yeast cultured two hours with chemical substance, DNA chip fluorescence ratio to control",1.5
same,"The level of expressed mRNA in the presence of chemical substance/The level of expressed mRNA in the absence of chemical substance, yeast gene YOR363C","gene YOR363C, Metabolism protein genes, DNA chip fluorescence ratio",0.9
same,"The level of expressed mRNA in the presence of chemical substance/The level of expressed mRNA in the absence of chemical substance, yeast gene YPL040C","gene YPL040C (mitochondria-located protein gene), yeast cultured two hours with chemical substance, DNA chip fluorescence ratio to control",0.8
same,"The level of expressed mRNA in the presence of chemical substance/The level of expressed mRNA in the absence of chemical substance, yeast gene YPL134C","gene YPL134C (mitochondria-located protein gene), yeast cultured two hours with chemical substance, DNA chip fluorescence ratio to control",1.6
same,"The level of expressed mRNA in the presence of chemical substance/The level of expressed mRNA in the absence of chemical substance, yeast gene YPR184W","gene YPR184W, Metabolism protein genes, DNA chip fluorescence ratio",5.7
same,level of expressed mRNA in the presence of chemical substance / level in the absence of chemical substance,yeast gene YAL018C,1.1
same,The level of expressed mRNA in the presence of chemical substance/The level of expressed mRNA in the absence of chemical substance,yeast gene YAL053W,1.3
same,level of expressed mRNA in the presence of chemical substance / level in the absence of chemical substance,yeast gene YAR047C,1.5
same,level of expressed mRNA in the presence of chemical substance / level in the absence of chemical substance,yeast gene YAR064W,0.9
same,level of expressed mRNA in the presence of chemical substance / level in the absence of chemical substance,yeast gene YBL044W,2.1
same,The level of expressed mRNA in the presence of chemical substance/The level of expressed mRNA in the absence of chemical substance,yeast gene YBL048W,2.3
same,The level of expressed mRNA in the presence of chemical substance/The level of expressed mRNA in the absence of chemical substance,yeast gene YBL107C,0.4
same,level of expressed mRNA in the presence of chemical substance / level in the absence of chemical substance,yeast gene YBR012C,1.3
same,level of expressed mRNA in the presence of chemical substance / level in the absence of chemical substance,yeast gene YBR066C,1.6
same,level of expressed mRNA in the presence of chemical substance / level in the absence of chemical substance,yeast gene YBR124W,1.5
same,level of expressed mRNA in the presence of chemical substance / level in the absence of chemical substance,yeast gene YBR162C,3.1
same,level of expressed mRNA in the presence of chemical substance / level in the absence of chemical substance,yeast gene YBR287W,3.1
same,level of expressed mRNA in the presence of chemical substance / level in the absence of chemical substance,yeast gene YCL042W,7.2
same,level of expressed mRNA in the presence of chemical substance / level in the absence of chemical substance,yeast gene YCL056C,0.7
same,level of expressed mRNA in the presence of chemical substance / level in the absence of chemical substance,yeast gene YCR007C,0.9
same,level of expressed mRNA in the presence of chemical substance / level in the absence of chemical substance,yeast gene YDL046W,5.1
same,The level of expressed mRNA in the presence of chemical substance/The level of expressed mRNA in the absence of chemical substance,yeast gene YDL072C,3.5
same,The level of expressed mRNA in the presence of chemical substance/The level of expressed mRNA in the absence of chemical substance,yeast gene YDL204W,4.8
same,The level of expressed mRNA in the presence of chemical substance/The level of expressed mRNA in the absence of chemical substance,yeast gene YDL222C,1.5
same,level of expressed mRNA in the presence of chemical substance / level in the absence of chemical substance,yeast gene YDR090C,0.8
